Laboratory results as given in patent publication US20230250108A1, “TETRAHYDROISOQUINOLINE COMPOUNDS AND USE THEREOF” (JIANGSU SIMCERE PHARMACEUTICAL CO., LTD., priority 2020, published 2023).

Legend:
Z-138 cells = assay: Inhibitory activity on tumor cell proliferation (Cell-Titer Glo, 8 days); type: cell-based; settings: Homo sapiens, 192 h, read-out: Inhibition of cell proliferation Z-138 IC50
Protocol: Materials and cells: Z-138 cells were purchased from ATCC (USA); IMDM medium and penicillin-streptomycin were purchased from Sigma PLC. (USA); horse serum was purchased from Hyclone (USA); 96-well plate was purchased from Corning (USA); and Cell-Titer Glo reagent was purchased from Promega (USA).
Cell culture: Z-138 cells were cultured in an IMDM culture solution containing 10% Horse serum+1% penicillin−streptomycin at 37° C., 5% CO2. Cells in logarithmic growth phase were suitable for the experiment.
Detection of cell proliferation activity: The inhibitory activities of the compounds on the proliferation of Z-138 cells were detected by using the Cell-Titer Glo reagent. The concentrations of the cells were adjusted, and 180 μL was inoculated in each well of the 96-well plate (500/well) and equilibrated for 10-15 minutes at 37° C., 5% CO2. 20 μL of a culture solution containing the compounds was added into each well with the final concentration reaching 0-300 nM (initial concentration: 300 nM, 3-fold dilution, for 10 points), and the DMSO content was 0.1%. The cell plate was placed at 37° C., 5% CO2 and incubated for 8 days. Culture solution was replaced at day 4: 100 μL of the supernatant was slowly aspirated and 100 μL of a fresh culture solution containing the compounds was provided as a supplement while the concentrations of the compounds were held constant. The cell viability was detected by using the Cell-Titer Glo reagent.

PRMT5/MEP50 = biological target: T1, PRMT5/MEP50 (Homo sapiens, UniProt O14744); assay: PRMT5 enzymatic activity inhibition experiment (AlphaScreen); type: biochemical
T1 construct: purchased BPS Bioscience Inc. (USA)
T1 sequence (O14744 2-637 limits assumed): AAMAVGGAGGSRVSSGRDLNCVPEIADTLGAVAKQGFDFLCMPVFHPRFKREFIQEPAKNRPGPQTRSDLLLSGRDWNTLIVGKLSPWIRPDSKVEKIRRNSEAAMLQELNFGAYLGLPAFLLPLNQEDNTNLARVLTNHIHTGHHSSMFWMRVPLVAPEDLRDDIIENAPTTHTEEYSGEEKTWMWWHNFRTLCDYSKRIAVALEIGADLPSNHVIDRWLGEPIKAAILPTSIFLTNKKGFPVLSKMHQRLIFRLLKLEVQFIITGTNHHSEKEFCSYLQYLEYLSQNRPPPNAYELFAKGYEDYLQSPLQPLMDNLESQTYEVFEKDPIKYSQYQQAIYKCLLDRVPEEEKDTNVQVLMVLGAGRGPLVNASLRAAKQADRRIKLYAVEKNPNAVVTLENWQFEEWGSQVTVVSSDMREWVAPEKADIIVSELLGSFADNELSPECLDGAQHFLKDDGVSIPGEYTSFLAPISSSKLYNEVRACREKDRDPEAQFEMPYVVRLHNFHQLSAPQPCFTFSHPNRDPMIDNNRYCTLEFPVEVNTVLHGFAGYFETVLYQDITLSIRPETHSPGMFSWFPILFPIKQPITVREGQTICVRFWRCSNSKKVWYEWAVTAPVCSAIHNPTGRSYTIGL
T1 sequence (Q9BQA1 2-342 partner limits assumed): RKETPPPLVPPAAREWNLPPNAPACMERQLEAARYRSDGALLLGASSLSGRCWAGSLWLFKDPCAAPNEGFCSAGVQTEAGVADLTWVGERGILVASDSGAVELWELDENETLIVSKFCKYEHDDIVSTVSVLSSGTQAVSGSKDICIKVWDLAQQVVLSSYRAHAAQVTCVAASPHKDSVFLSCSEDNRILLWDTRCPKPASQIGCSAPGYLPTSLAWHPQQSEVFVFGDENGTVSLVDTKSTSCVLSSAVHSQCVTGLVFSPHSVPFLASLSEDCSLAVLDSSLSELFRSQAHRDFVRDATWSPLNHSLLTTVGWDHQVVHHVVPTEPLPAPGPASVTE
Description: Materials: PRMT5/MEP50 proteins were purchased from BPS Bioscience Inc. (USA); Histone H4 Peptide substrate was purchased from Sangon Biotech (Shanghai) Co., Ltd.; Anti-Histone H4 (symmetric dimethyl R3) antibody—ChIP Grade was purchased from Abcam PLC. (USA); S-(5′-Adenosyl)-L-methionine chloride dihydrochloride was purchased from Sigma PLC. (USA); 384-well plate, AlphaScreen Streptavidin Donor beads, AlphaScreen Protein A Acceptor beads, and Envision 2104 multi-label Reader were purchased from Perkin-Elmer Instruments (USA) Corporation; and Echo 550 Liquid Handler was purchased from Labcyte Inc. (USA).
Enzymatic activity assay: The compounds were added into a 384-well plate by using the Echo 550 Liquid Handler with the final concentration of 0-1000 nM (initial concentration: 1000 nM, 3-fold dilution, for 10 points), and the DMSO content was 0.5%. 10 μL of a 2× PRMT5/MEP50 solution was added into each well and incubated at room temperature for 30 minutes. 10 μL of 2× PRMT5/MEP50 substrate solution was added to each well to start the reaction and incubated at room temperature for 60 minutes. A 6× detection reagent containing AlphaScreen Protein A Acceptor beads and Anti-Histone H4 (symmetric dimethyl R3) antibodies was prepared and 5 μL was added to each well. The plate was incubated at room temperature for 60 minutes. A 6× detection reagent containing AlphaScreen Streptavidin Donor beads was prepared and 5 μL was added to each well. The plate was incubated at room temperature for 60 minutes. The signal values were detected by using the Envision.

[1] = Pharmacokinetic experiment in mice; type: in vivo, CB17-SCID mice
Description: Experimental materials: GB17-SCID mice were purchased from Beijing Vital River Laboratory Animal Technology Co., Ltd.; DMSO, HP-β-CD (Hydroxypropyl-β-cyclodextrin), MC (methyl cellulose) and acetonitrile were purchased from Merck & Co., Inc. (USA), and K2EDTA anticoagulation tubes were purchased from Jiangsu Xinkang Medical Instrument Co., Ltd.
Experiment method: Six female CB17-SCID mice (20-30 g, 4-6 weeks) were randomized into 2 groups, 3 mice/group. Group 1 was given compound 002 via tail vein injection at a dose of 2 mg/kg, and the vehicle was 5% of DMSO+95% of 10% HP-β-CD aqueous solution; and group 2 was given compound 002 orally at a dose of 10 mg/kg, and the vehicle was 0.5% MC aqueous solution. Prior to the experiment, the animals were given food and water as usual. At pre-dose and 0.083 (only for the vein injection group), 0.25, 0.5, 1, 2, 4, 6, 8 and 24 h post-dose, blood was sampled from the mice in each group from the vein. The whole blood sample collected was placed in a K2EDTA anticoagulation tube and centrifuged for 5 min (4000 rpm, 4° C.) and then the plasma was taken for detection.
10 μL of the mouse plasma sample was taken and 150 μL of acetonitrile solvent (wherein internal standard compound was contained) was added to precipitate proteins. After the mixture was vortexed for 0.5 min, centrifugation (4700 rpm, 4° C.) was performed for 15 min. The supernatant was diluted 2-fold with water containing 0.05% (v/v) formic acid and 3 μL was injected into the LC-MS/MS system (AB Sciex Triple Quad 6500+) for the quantitative detection. The concentrations of the samples were determined with the present of plasma standard curve (linear range: 0.5-1000 ng/mL) of CB17-SCID mice and quality control samples. For the preparation of 10-fold diluted samples, 2 μL of mouse plasma sample was taken and 18 μL of blank plasma was added. After the mixture was vortexed for 0.5 min, 300 μL of acetonitrile solvent (wherein internal standard compound was contained) was added to precipitate proteins. The other processing steps were identical to those for the samples not diluted.

[2] = Hepatocellular metabolic stability test, mouse hepatocytes
Description: Experimental materials: Human hepatocytes were purchased from Biopredic; mouse hepatocytes were purchased from BioIVT; acetonitrile and methanol were purchased from Merck & Co., Inc.; AOPI dyes were purchased from Nexcelom; dexamethasone was purchased from NIFDC; DMSO was purchased from Beijing Solarbio Science & Technology Co., Ltd.; DPBS (10×), GlutaMAX™-1 (100×) and recombinant human insulin were purchased form Gibco by Life Technologies; fetal bovine serum was purchased from Corning; formic acid was purchased from DIKMAPURE; Isotonic Percoll was purchased from GE Healthcare; alprazolam was purchased from Supelco; caffeine was purchased from ChromaDex.inc; and HEPES, tolbutamide and Williams' Medium E were purchased from Sigma.
The powder of a test substance was formulated with DMSO into a stock solution with a high concentration, which was diluted to a working solution of 100 μM with acetonitrile prior to use. The final concentration of the test substance was 1 μM.
49.5 mL of Williams'E Medium and 0.5 mL of GlutaMAX were mixed as an incubation media. Hepatocyte thawing media and incubation media were placed in a 37° C. water-bath and pre-heated for at least 15 minutes prior to use. A tube of hepatocytes stored at an ultra-low temperature was taken and the hepatocytes were ensured to be at a frozen state at a low temperature prior to thawing. The hepatocytes were rapidly placed in a 37° C. water-bath and gently shaken until all the ice crystals were dispersed, and then after 70% ethanol was sprayed, the hepatocytes were transferred to a biosafety cabinet. The content of the tube was poured into a centrifugal tube containing 50 mL of thawing media and centrifuged at 100 g for 10 minutes. After centrifugation, the thawing media was aspirated, and a sufficient amount of incubation media was added to obtain a cell suspension with a cell density of about 1.5×10^6 cells/mL. The hepatocytes were counted, and the viable cell density was determined using Cellometer Vision, and the survival rate of the hepatocytes must be higher than 75%. The hepatocyte suspension was diluted by using the incubation media to a viable cell density of 0.5×10^6 viable cells/mL.
247.5 μL of viable cell (human hepatocytes or mouse hepatocytes) suspension or media were transferred into a 96-well deep-well plate, and the deep-well plate was placed in a vortex incubator and pre-heated for 10 minutes. Incubation of all the samples was performed in parallel duplicate. Test substance (2.5 μL, 100 μM) was added into each well to start the reaction and the deep-well plate was placed in the vortex incubator again. The samples were incubated, and 25 μL of the suspension was taken at 0, 15, 30, 60, 90 and 120 minutes, respectively. 125 μL of acetonitrile containing internal standard (100 nM alprazolam, 200 nM caffeine, and 100 nM tolbutamide) was added to terminate the reaction. The mixture was vortexed for 10 minutes and centrifuged at 3220 g, 4° C. for 30 minutes. After centrifugation, 100 μL of the supernatant was transferred into the loading plate and 150 μL of pure water was added and mixed uniformly for LC-MS/MS analysis.
All the data calculation was performed by the Microsoft Excel software. The peak area was detected by extracting the ion chromatogram. The in vitro half-life (t1/2) of the parent drug was detected by performing linear fitting of the natural logarithm of elimination percent of the parent drug and time.
The in vitro half-life (t1/2) was calculated by means of the slope:

[3] = female, CB17-SCID, mouse, plasma, 10 mg/kg, Mice PO (10 mpk)

SMILES: CCN1CCN(C[C@@H](O)[C@@H]2Cc3ccccc3CN2)C(=O)c2ccc(C(=O)N3CCC4(CC3)CC(OC)C4)cc21.Cl [Compound 002, 1-ethyl-4-((R)-2-hydroxy-2-((S)-1,2,3,4-tetrahydroisoquinolin-3-yl)ethyl)-8-(2-methoxy-7-azaspiro[3.5]nonane-7-carbonyl)-1,2,3,4-tetrahydro-5H-benzo[e][1,4]diazepin-5-one hydrochloride]
- IC50 (Z-138 cells): 2.19 nM
- IC50 (PRMT5/MEP50): 4.05 nM
- Cl_obs ([1]; Mice IV (2 mpk)): 61.1 ± 6.2 mL/min/kg
- F ([1]; Mice PO (10 mpk)): 96.5 ± 20.5%
- half-life ([1]; female, CB17-SCID, mouse, plasma, 2 mg/kg, Mice IV (2 mpk)): 3.56 ± 0.55 h
- Vd ([1]; female, CB17-SCID, mouse, plasma, 2 mg/kg, Mice IV (2 mpk), read-out: Vss—obs): 8.2 ± 0.6 L/kg
- AUC(0-t) [1, 3]: 2650 ± 563 ng·h/mL
- Cmax [1, 3]: 827 ± 79 ng/mL
- Tmax [1, 3]: 0.33 ± 0.14 h
- half-life [1, 3]: 2.68 ± 0.2 h
- half-life at 1 μM [2]: 1.58 h
